Values after ≈ are worked out from the molar mass of the structure shown. Where two headings read alike, the source gives them in different places.
Experiments:
[1] = tested on: Staphylococcus aureus ATCC 29213; assay: MBC, agar aliquot subculture method; format: cell-based; conditions: ATCC29213, SA = S. aureus ATCC 29213, read-out: MBC
Protocol: (§1) All the investigated compounds were screened for in vitro antibacterial activity against the reference and quality control strain Staphylococcus aureus ATCC 29213 and clinical isolates of methicillin-resistant S. aureus (MRSA) 63718, SA 630, and SA 3202 [14]. Activities are expressed as the minimum inhibitory concentrations (MICs), see Table 2. In addition to the MICs, the minimum bactericidal concentrations (MBCs) were also determined.
(§2) For the S. aureus and MRSA isolates, the agar aliquot subculture method was used as a test for bactericidal agents. After the MIC value determination, the inoculum was transferred to Mueller–Hinton (Oxoid) agar using a multipoint inoculator. The plates were incubated in a thermostat at 37 °C for 24 h. The lowest concentration of test compound at which ≤5 colonies were obtained was then evaluated as MBC, corresponding to a 99.9% decrease in CFU relative to the original inoculum.

MRSA SA 630 [2] = assay: MBC, agar aliquot subculture method; format: cell-based; conditions: Staphylococcus aureus
Protocol: as §1, §2

MRSA 63718 [3] = assay: MBC, agar aliquot subculture method; format: cell-based; conditions: Staphylococcus aureus
Protocol: as §1, §2

MRSA SA 3202 [4] = assay: MBC, agar aliquot subculture method; format: cell-based; conditions: Staphylococcus aureus
Protocol: as §1, §2

[5] = tested on: Staphylococcus aureus ATCC 29213; assay: MIC, microtitration broth method; format: cell-based; conditions: ATCC29213, SA = S. aureus ATCC 29213, 24 h, read-out: MIC
Protocol: as §1
(§3) In vitro antibacterial activity of the synthesized compounds was evaluated against representatives of multidrug-resistant bacteria, three clinical isolates of methicillin-resistant S. aureus: clinical isolate of animal origin, MRSA 63718 (Department of Infectious Diseases and Microbiology, Faculty of Veterinary Medicine, University of Veterinary Sciences Brno, Czech Republic), carrying the mecA gene; and MRSA SA 630 [46] and MRSA SA 3202 [46] (National Institute of Public Health, Prague, Czech Republic), both of human origin. Suspected colonies were confirmed by PCR; a 108bp fragment specific for S. aureus was detected. All isolates were tested for the presence of the mecA gene encoding methicillin resistance. […] Vancomycin-susceptible methicillin-susceptible S. aureus (VS-MSSA) ATCC 29213, obtained from the American Type Culture Collection, was used as the reference and quality control strain. Enterococcus faecalis ATCC 29212 was obtained from the American Type Culture Collection and used as the reference and quality control strain.
(§4) The minimum inhibitory concentrations (MICs) were evaluated by the microtitration broth method according to the CLSI [64, 65] with some modifications. The compounds were dissolved in DMSO (Sigma, St. Louis, MO, USA) to get a concentration […] and diluted in a microtitration plate in an appropriate medium, namely, Cation Adjusted Mueller–Hinton (CaMH, Oxoid, Basingstoke, UK) for staphylococci (S. aureus ATCC 29213, clinical isolates of MRSA 63718, SA 630, and SA 3202) and brain heart infusion (BHI, Oxoid) for E. faecalis ATCC 29212, to reach the final concentration of 256-0.125 µg/mL. The plate was inoculated by the tested microorganisms. The final concentration of bacterial cells was 10^5 for bacteria. Ampicillin (Sigma) was used as reference drugs. A drug-free control and a sterility control were included. The plates were incubated for 24 h at 37 °C for staphylococci and E. faecalis ATCC 29212 (stability evaluation of the carbamates, see Supplementary materials, Table S1). […] The experiments were repeated three times.

MRSA SA 630 [6] = assay: MIC, microtitration broth method; format: cell-based; conditions: Staphylococcus aureus
Protocol: as §1, §3, §4

MRSA 63718 [7] = assay: MIC, microtitration broth method; format: cell-based; conditions: Staphylococcus aureus
Protocol: as §1, §3, §4

MRSA SA 3202 [8] = assay: MIC, microtitration broth method; format: cell-based; conditions: Staphylococcus aureus
Protocol: as §1, §3, §4

THP-1 cells = assay: In vitro cytotoxicity assay (WST-1); format: cell-based; conditions: Homo sapiens; THP-1, 24 h, ± SD, n = 6; read-out: IC50
Protocol: Preliminary in vitro cytotoxicity screening of the investigated compounds was performed using human monocytic leukemia THP-1 cells, see Table 2. The ability to inhibit the human cancer cell viability (IC50) of the compounds was compared to camptothecin toxicity (0.16 ± 0.07 μM). […] However, these values are up to two orders of magnitude higher than their significant antistaphyloccocal concentrations. This fact is also taken into account in the calculated selectivity index (SI), Table 2, where for only three compounds the SI is <20, while for the rest of the agents SI is >20, and for some derivatives even 100 and more. Thus, based on all these observations, it can be concluded that all the tested derivatives can be considered as in vitro non-toxic compounds for the subsequent design of new therapeutic agents.
The human THP-1 cell line (European Collection of Cell Cultures, Salisbury, UK) was cultured in RPMI 1640 medium supplemented with 10% fetal bovine serum, 2% L-glutamine, 1% penicillin, and streptomycin at 37 °C with 5% CO2. Cells were passaged at approximately 1-week intervals. All the tested compounds were prepared and dissolved as mentioned in our previous work.

[9] = Lipophilicity determination by RP-HPLC (log k, log D); format: physicochemical; conditions: for log D6.5 / log D7.4 / log k: RP-HPLC; for log D6.5: MeOH 72%/acetate buffered saline pH 6.5; for log D7.4: MeOH 72%/acetate buffered saline pH 7.4; for log k: MeOH 72%/water 28%
Protocol: Lipophilicity was measured by reversed-phase high performance liquid chromatography (RP-HPLC) under isocratic conditions with methanol as the organic modifier in the aqueous mobile phase and the logarithm of the capacity factor k was calculated, which is used as the lipophilicity index converted to the log P scale. In addition to the log k values, the logarithm of the distribution coefficient DpH at pH 6.5 and 7.4 was determined to clarify the behavior of the compounds under physiological conditions and possible ionization. Instead of water, a buffer of suitable pH was used as part of the mobile phase. In addition to the above-mentioned experimental methods, commercially available ChemBioDraw Ultra 13.0 and ACD/Percepta ver. […] In addition to lipophilicity, other parameters discussed in Ro5, such as molecular weight, number of H-bond donors/acceptors, as well as parameters not reported in Ro5, but characterizing the physicochemical properties of the prepared molecules, such as number of rotatable bonds, were predicted using ACD/Percepta. Moreover, for each R substituent, bulkiness expressed as molar volume (MV [cm^3]), a parameter describing the tail length/branching of each carbamates, was calculated.
A HPLC separation module Agilent 1200 Series (Agilent Technologies, Santa Clara, CA, USA) equipped with a Dual Absorbance Detector (DAD SL G1315C, Agilent Technologies) was used. A chromatographic column Symmetry® C18 5 μm, 4.6 × 250 mm, Part No. W21751W016 (Waters Corp, Milford, MA, USA) was used. The HPLC separation process was monitored by ChemStation for LC 3D systems (Agilent Technologies). […] The total flow of the column was 1.0 mL/min, injection 20 μL, column temperature 40 °C, and sample temperature 10 °C. The detection wavelength of 210 nm was chosen. A KI methanolic solution was used for the determination of the dead times (tD). Retention times (tR) were measured in minutes. The capacity factors k were calculated according to the formula k = (tR − tD)/tD, where tR is the retention time of the solute, and tD is the dead time obtained using an unretained analyte. The distribution coefficients DpH were calculated according to the formula DpH = (tR − tD)/tD. Each experiment was repeated three times.

[10] = tested on: Enterococcus faecalis ATCC 29212; assay: MIC, microtitration broth method; format: cell-based; conditions: for MIC: ATCC29212, EF = Enterococcus faecalis, 24 h, read-out: MIC
Protocol: as §3, §4

| Compound | MBC [1] [µM] | MIC [5] [µM] | IC50 (THP-1 cells) [µM] | MBC (MRSA SA 630 [2]) [µM] | MBC (MRSA 63718 [3]; MRSA) [µM] | MBC (MRSA SA 3202 [4]) [µM] | MIC (MRSA SA 630 [6]; 24 h) [µM] | MIC (MRSA 63718 [7]; MRSA, 24 h) [µM] | MIC (MRSA SA 3202 [8]; 24 h) [µM] | log D6.5 [9] | log D7.4 [9] | log k [9] | MIC [10] [µM] | also measured |
| --- | --- | --- | --- | --- | --- | --- | --- | --- | --- | --- | --- | --- | --- | --- |
| CC1(C)S[C@@H]2[C@H](NC(=O)[C@H](N)c3ccccc3)C(=O)N2[C@H]1C(=O)O [APM, ampicillin, reference compound] | > 5.72 | 5.72 (≈ 2 µg/mL) |  |  |  |  |  |  |  |  |  |  |  | MBC (MRSA SA 630 [2]; MRSA2 = SA 630, read-out: MBC): > 45.8 µM; MBC (MRSA 63718 [3]; MRSA1 = MRSA 63718, read-out: MBC): > 45.8 µM; MBC (MRSA SA 3202 [4]; MRSA3 = SA 3202, read-out: MBC): > 45.8 µM; MIC (MRSA SA 630 [6]; MRSA2 = SA 630, 24 h, read-out: MIC): 45.8 µM (≈ 16 µg/mL); MIC (MRSA 63718 [7]; MRSA1 = MRSA 63718, 24 h, read-out: MIC): 45.8 µM (≈ 16 µg/mL); MIC (MRSA SA 3202 [8]; MRSA3 = SA 3202, 24 h, read-out: MIC): 45.8 µM (≈ 16 µg/mL) |
| CC[C@@]1(O)C(=O)OCc2c1cc1n(c2=O)Cc2cc3ccccc3nc2-1 [CMT, camptothecin, reference compound] |  |  | 0.16 ± 0.07 |  |  |  |  |  |  |  |  |  |  |  |
| CCCNC(=O)Oc1c(C(=O)Nc2cc(Cl)c(Cl)cc2Cl)ccc2ccccc12 [Compound 3, 2-[N-(2,4,5-Trichlorophenyl)carbamoyl]naphthalen-1-yl propyl carbamate] | 0.035 (≈ 0.0158 µg/mL) | 0.035 (≈ 0.0158 µg/mL) | 3.12 ± 0.07 | 0.553 (≈ 0.25 µg/mL) | 0.277 (≈ 0.125 µg/mL) | 0.071 (≈ 0.0321 µg/mL) | 0.553 (≈ 0.25 µg/mL) | 0.139 (≈ 0.0628 µg/mL) | 0.071 (≈ 0.0321 µg/mL) | 0.9734 | 0.9793 | 0.9689 | 283 (≈ 128 µg/mL) |  |
| CCCCCNC(=O)Oc1c(C(=O)Nc2cc(Cl)c(Cl)cc2Cl)ccc2ccccc12 [Compound 5, 2-[N-(2,4,5-Trichlorophenyl)carbamoyl]naphthalen-1-yl pentyl carbamate] | 0.067 (≈ 0.0321 µg/mL) | 0.067 (≈ 0.0321 µg/mL) | 3.44 ± 0.04 | 0.521 (≈ 0.25 µg/mL) | 0.261 (≈ 0.125 µg/mL) | 0.131 (≈ 0.0629 µg/mL) | 0.261 (≈ 0.125 µg/mL) | 0.261 (≈ 0.125 µg/mL) | 0.131 (≈ 0.0629 µg/mL) | 1.3072 | 1.3168 | 1.3051 | 267 (≈ 128 µg/mL) |  |
| CCCCCCNC(=O)Oc1c(C(=O)Nc2cc(Cl)c(Cl)cc2Cl)ccc2ccccc12 [Compound 6, 2-[N-(2,4,5-Trichlorophenyl)carbamoyl]naphthalen-1-yl hexyl carbamate] | 0.128 (≈ 0.0632 µg/mL) | 0.128 (≈ 0.0632 µg/mL) | 3.2 ± 0.19 | 0.506 (≈ 0.25 µg/mL) | 0.253 (≈ 0.125 µg/mL) | 0.253 (≈ 0.125 µg/mL) | 0.253 (≈ 0.125 µg/mL) | 0.253 (≈ 0.125 µg/mL) | 0.253 (≈ 0.125 µg/mL) | 1.4899 | 1.4990 | 1.4883 | 259 (≈ 128 µg/mL) |  |
| CCCCCCCNC(=O)Oc1c(C(=O)Nc2cc(Cl)c(Cl)cc2Cl)ccc2ccccc12 [Compound 7, 2-[N-(2,4,5-Trichlorophenyl)carbamoyl]naphthalen-1-yl heptyl carbamate] | 0.124 (≈ 0.063 µg/mL) | 0.124 (≈ 0.063 µg/mL) | 3.19 ± 0.44 | 0.492 (≈ 0.25 µg/mL) | 0.246 (≈ 0.125 µg/mL) | 0.246 (≈ 0.125 µg/mL) | 0.246 (≈ 0.125 µg/mL) | 0.246 (≈ 0.125 µg/mL) | 0.246 (≈ 0.125 µg/mL) | 1.6765 | 1.6863 |  | 63 (≈ 32 µg/mL) | anti-enterococcal activity (in words) ([10]; E. faecalis ATCC 29212): moderate activity |
| CCCCCCCCNC(=O)Oc1c(C(=O)Nc2cc(Cl)c(Cl)cc2Cl)ccc2ccccc12 [Compound 8, 2-[N-(2,4,5-Trichlorophenyl)carbamoyl]naphthalen-1-yl octyl carbamate] | 0.958 (≈ 0.5 µg/mL) | 0.479 (≈ 0.25 µg/mL) | 2.61 ± 0.32 | 1.92 (≈ 1 µg/mL) | 1.92 (≈ 1 µg/mL) | 1.92 (≈ 1 µg/mL) | 0.479 (≈ 0.25 µg/mL) | 0.958 (≈ 0.5 µg/mL) | 1.92 (≈ 1 µg/mL) | 1.8687 | 1.8785 | 1.8654 | 123 (≈ 64.2 µg/mL) | lipophilicity (experimental log k/log D, approximate) [9]: ca. 1.87 |
| CC(C)NC(=O)Oc1c(C(=O)Nc2cc(Cl)c(Cl)cc2Cl)ccc2ccccc12 [Compound 9, 2-[N-(2,4,5-Trichlorophenyl)carbamoyl]naphthalen-1-yl isopropyl carbamate] | 0.018 (≈ 0.00813 µg/mL) | 0.018 (≈ 0.00813 µg/mL) | 3.26 ± 0.08 | 0.277 (≈ 0.125 µg/mL) | 0.139 (≈ 0.0628 µg/mL) | 0.277 (≈ 0.125 µg/mL) | 0.035 (≈ 0.0158 µg/mL) | 0.139 (≈ 0.0628 µg/mL) | 0.277 (≈ 0.125 µg/mL) | 0.9579 | 1.0468 | 0.9526 | 142 (≈ 64.1 µg/mL) |  |

From paper PMC9228535, “Antistaphylococcal Activities and ADME-Related Properties of Chlorinated Arylcarbamoylnaphthalenylcarbamates” (Pharmaceuticals, 2022)
